These results are taken from ChEMBL document CHEMBL5537136 (J Med Chem, 2024).

A word on the IC50: it is the concentration at which inhibition is half-maximal. Higher therefore signals a need for much substance. Usually AUC(0-inf) stands for the area under the concentration-time curve extrapolated to infinity. Higher therefore signals high exposure.

In data set [1] the target is T1, Poly [ADP-ribose] polymerase tankyrase-2 (Homo sapiens, UniProt Q9H2K2).
T1 sequence (Q9H2K2 whole entry): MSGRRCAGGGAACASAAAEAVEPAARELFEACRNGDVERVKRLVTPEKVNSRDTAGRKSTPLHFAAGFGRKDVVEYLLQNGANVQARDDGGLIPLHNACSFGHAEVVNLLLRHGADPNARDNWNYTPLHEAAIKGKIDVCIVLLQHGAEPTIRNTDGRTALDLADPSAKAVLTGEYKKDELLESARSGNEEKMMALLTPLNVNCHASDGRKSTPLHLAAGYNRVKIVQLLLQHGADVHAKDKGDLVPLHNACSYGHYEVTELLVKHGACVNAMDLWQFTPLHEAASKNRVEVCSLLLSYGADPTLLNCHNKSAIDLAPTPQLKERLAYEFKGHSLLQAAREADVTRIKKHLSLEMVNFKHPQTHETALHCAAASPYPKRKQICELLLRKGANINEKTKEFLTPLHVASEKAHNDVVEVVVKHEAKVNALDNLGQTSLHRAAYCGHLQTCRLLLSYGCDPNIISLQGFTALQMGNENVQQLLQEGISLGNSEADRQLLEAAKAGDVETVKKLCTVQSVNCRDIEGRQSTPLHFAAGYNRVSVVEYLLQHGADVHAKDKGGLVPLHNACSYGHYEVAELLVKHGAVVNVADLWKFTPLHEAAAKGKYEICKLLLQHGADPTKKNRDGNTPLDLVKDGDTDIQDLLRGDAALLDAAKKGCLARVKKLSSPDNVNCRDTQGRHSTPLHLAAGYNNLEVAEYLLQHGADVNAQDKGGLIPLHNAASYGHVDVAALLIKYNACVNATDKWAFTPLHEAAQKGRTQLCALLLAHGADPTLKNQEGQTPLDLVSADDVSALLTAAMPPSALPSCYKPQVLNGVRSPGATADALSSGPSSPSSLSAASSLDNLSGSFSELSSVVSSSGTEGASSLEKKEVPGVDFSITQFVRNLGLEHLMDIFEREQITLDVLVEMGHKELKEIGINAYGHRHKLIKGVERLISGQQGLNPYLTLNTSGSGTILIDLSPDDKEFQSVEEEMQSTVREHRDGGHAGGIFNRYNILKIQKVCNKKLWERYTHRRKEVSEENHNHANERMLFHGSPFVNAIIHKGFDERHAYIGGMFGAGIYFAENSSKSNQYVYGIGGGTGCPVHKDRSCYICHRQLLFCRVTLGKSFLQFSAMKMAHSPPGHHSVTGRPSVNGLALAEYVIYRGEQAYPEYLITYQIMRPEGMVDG
In words: Inhibition of TNKS2 (unknown origin) measured after 1 hr incubation by microplate reader assay.

Data set [2] deals with T2, Poly [ADP-ribose] polymerase tankyrase-1 (Homo sapiens, UniProt O95271).
T2 sequence (O95271 whole entry): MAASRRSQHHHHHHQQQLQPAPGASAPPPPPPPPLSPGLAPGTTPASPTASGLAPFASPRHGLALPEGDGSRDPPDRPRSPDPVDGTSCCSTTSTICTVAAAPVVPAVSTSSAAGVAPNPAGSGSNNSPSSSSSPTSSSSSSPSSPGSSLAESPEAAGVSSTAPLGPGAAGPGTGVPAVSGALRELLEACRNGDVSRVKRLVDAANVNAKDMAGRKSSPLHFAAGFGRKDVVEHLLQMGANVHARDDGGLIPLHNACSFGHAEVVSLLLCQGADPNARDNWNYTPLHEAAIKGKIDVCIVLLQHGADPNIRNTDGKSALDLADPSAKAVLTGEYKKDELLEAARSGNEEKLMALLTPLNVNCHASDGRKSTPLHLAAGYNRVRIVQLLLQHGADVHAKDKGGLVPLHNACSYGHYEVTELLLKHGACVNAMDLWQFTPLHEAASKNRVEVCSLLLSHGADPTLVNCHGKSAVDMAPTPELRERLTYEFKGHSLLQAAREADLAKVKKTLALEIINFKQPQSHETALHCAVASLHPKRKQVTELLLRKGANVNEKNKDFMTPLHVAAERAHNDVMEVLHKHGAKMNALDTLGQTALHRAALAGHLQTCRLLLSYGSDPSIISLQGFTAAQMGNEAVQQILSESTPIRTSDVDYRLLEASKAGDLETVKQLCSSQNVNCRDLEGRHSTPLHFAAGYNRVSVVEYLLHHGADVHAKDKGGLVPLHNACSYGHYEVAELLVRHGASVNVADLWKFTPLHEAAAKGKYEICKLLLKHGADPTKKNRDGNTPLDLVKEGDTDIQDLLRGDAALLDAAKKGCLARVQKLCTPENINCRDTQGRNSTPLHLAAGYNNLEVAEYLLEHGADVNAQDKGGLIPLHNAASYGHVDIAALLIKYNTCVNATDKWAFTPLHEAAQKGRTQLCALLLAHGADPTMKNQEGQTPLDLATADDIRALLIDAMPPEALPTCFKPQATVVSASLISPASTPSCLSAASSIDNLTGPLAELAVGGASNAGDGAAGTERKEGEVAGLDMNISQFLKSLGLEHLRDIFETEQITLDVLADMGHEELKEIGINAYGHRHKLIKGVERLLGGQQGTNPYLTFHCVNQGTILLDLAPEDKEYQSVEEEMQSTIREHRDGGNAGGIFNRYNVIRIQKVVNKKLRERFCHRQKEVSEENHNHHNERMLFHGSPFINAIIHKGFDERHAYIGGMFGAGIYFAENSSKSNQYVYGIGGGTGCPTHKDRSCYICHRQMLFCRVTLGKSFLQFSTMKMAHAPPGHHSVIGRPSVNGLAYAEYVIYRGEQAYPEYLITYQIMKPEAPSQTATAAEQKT
Briefly: Inhibition of TNKS1 (unknown origin) measured after 1 hr incubation by microplate reader assay.

Data set [3] in a line: Toxicity in Balb/c mouse bearing mouse CT26 cells assessed as body weight change at 6.25 to 25 mg/kg, IG measured after 14 days. As to conditions: in vivo, po, 336 h, dose 6.25-25 mg/kg, time 14 day. Format: organism-based.
In data set [4] the test system is CT26. Briefly: Antitumor activity in immunocompetent mouse CT26 cell bearing mouse model assessed as tumor growth inhibition at 6.25 mg/kg, IG treated twice a day measured after 14 days relative to control. Format: functional. As to conditions: CT26, po, 336 h, time 14 day, read-out: TGI.
Data set [5] has as its system CT26. In words: cells. As to conditions: Mus musculus, CT26, 144 h.
Data set [6] deals with Poly [ADP-ribose] polymerase 2 (Homo sapiens, UniProt Q9UGN5). In words: Inhibition of PARP2 (unknown origin) measured after 1 hr incubation by microplate reader assay.
Data set [7] in a line: AUC (0 to infinity) in ICR mouse at 10 mg/kg, IG measured upto 24 hrs by LC-MS/MS analysis. The settings on record: in vivo, po. Type of data set: ADME, organism-based.
In data set [8] the test system is CT26. In words: Antitumor activity in immunocompetent mouse CT26 cell bearing Balb/c mouse model assessed as induction of IFN-beta mRNA expression in tumor tissue treated IG twice a day measured after 14 days by quantitative real-time PCR analysis. Format: functional. As to conditions: dose lower 6.25 mg/kg, dose upper […], time 14.0 day.
Data set [9] can be described thus: Apparent volume of distribution in ICR mouse at 1 mg/kg, iv measured upto 24 hrs by LC-MS/MS analysis. Format: ADME, organism-based. As to conditions: in vivo, read-out: Vz.

Chain of Poly [ADP-ribose] polymerase 2 (Q9UGN5 whole entry): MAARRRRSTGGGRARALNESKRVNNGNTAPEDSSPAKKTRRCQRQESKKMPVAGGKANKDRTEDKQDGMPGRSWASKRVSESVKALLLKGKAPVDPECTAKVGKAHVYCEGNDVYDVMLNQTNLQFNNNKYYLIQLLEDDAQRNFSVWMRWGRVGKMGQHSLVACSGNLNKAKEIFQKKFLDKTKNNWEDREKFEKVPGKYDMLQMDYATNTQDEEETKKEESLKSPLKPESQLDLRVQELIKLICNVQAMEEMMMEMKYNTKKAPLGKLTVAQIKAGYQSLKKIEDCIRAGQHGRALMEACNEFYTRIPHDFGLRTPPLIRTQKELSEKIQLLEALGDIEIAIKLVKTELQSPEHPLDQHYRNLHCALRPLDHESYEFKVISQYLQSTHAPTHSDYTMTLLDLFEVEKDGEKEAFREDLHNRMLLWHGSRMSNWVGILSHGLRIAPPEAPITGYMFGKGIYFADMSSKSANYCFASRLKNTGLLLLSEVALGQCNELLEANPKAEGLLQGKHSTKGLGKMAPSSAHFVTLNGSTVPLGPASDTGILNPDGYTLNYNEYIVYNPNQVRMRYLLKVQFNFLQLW

Consider `C[C@@H](C(=O)N1CCN(c2ncc(C(F)(F)F)cn2)CC1)n1cc2cccc(C(N)=O)c2n1`, for which the IC50 was 694 nM in data set [1], 901 nM in data set [2], 16200 nM with CT26 [5] and 303 nM in data set [6]. Also, the figures for the Activity entry (in [3]; with CT26 [8]) were “Non-Toxic” and “Dose-Dependent Effect”, respectively. For the same molecule, the inhibition in vivo at 6.25 mg/kg in the data set on CT26 [4] was found to be 42%. In data set [7], this molecule gave an AUC(0-inf) of 17000 ng·h/mL. Also, in [9], the Vd came to 0.978 L/kg.
